Measured values published in PubChem BioAssay (NCI).
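Values below derive from 48-hour exposures of cells grown in 96-well plates, with endpoints linearly interpolated between the two concentrations bracketing the appropriate inhibition level. Here, GI50 denotes the concentration required for 50% inhibition of growth. TGI is the concentration that stops growth completely.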

Legend:
Test in all cases: inhibition of tumour cell growth, NCI panel, 48 h
SK-MEL-2 melanoma = system: SK-MEL-2 melanoma
UACC-257 melanoma = system: UACC-257 melanoma
M14 melanoma = system: M14 melanoma
PC-3 prostate = system: PC-3 prostate
SF-295 CNS = system: SF-295 CNS
OVCAR-3 ovarian = system: OVCAR-3 ovarian
OVCAR-4 ovarian = system: OVCAR-4 ovarian
SK-MEL-5 melanoma = system: SK-MEL-5 melanoma
NCI-H23 lung = system: NCI-H23 lung
HCC-2998 colon = system: HCC-2998 colon
SN12C renal = system: SN12C renal
MDA-MB-231 breast = system: MDA-MB-231 breast
EKVX NSCLC = system: EKVX NSCLC
HCT-15 colon = system: HCT-15 colon
IGROV1 ovarian = system: IGROV1 ovarian
SF-268 CNS = system: SF-268 CNS
ACHN renal = system: ACHN renal
HL-60(TB) leukemia = system: HL-60(TB) leukemia
MOLT-4 leukemia = system: MOLT-4 leukemia
UACC-62 melanoma = system: UACC-62 melanoma
A549 NSCLC = system: A549 NSCLC
HOP-62 NSCLC = system: HOP-62 NSCLC
NCI-H226 lung = system: NCI-H226 lung
U251 CNS = system: U251 CNS
MDA-MB-435 = system: MDA-MB-435
OVCAR-5 ovarian = system: OVCAR-5 ovarian
SF-539 CNS = system: SF-539 CNS
COLO 205 colon = system: COLO 205 colon
SK-MEL-28 melanoma = system: SK-MEL-28 melanoma
K-562 leukemia = system: K-562 leukemia
CAKI-1 renal = system: CAKI-1 renal
HT29 colon = system: HT29 colon
NCI-H460 lung = system: NCI-H460 lung
NCI-H522 lung = system: NCI-H522 lung
MALME-3M melanoma = system: MALME-3M melanoma
NCI/ADR-RES ovarian = system: NCI/ADR-RES ovarian
T-47D breast = system: T-47D breast
LOX IMVI melanoma = system: LOX IMVI melanoma
CCRF-CEM leukemia = system: CCRF-CEM leukemia
SNB-19 CNS = system: SNB-19 CNS
SK-OV-3 ovarian = system: SK-OV-3 ovarian
MDA-N = system: MDA-N
DU-145 prostate = system: DU-145 prostate
KM12 colon = system: KM12 colon
RXF 393 renal = system: RXF 393 renal
A498 renal = system: A498 renal
SR leukemia = system: SR leukemia
UO-31 renal = system: UO-31 renal
SW-620 colon = system: SW-620 colon
786-0 renal = system: 786-0 renal
HOP-92 NSCLC = system: HOP-92 NSCLC
OVCAR-8 ovarian = system: OVCAR-8 ovarian
TK-10 renal = system: TK-10 renal
HS 578T breast = system: HS 578T breast
MCF7 breast = system: MCF7 breast
HCT-116 colon = system: HCT-116 colon
RPMI-8226 leukemia = system: RPMI-8226 leukemia
SNB-75 CNS = system: SNB-75 CNS
BT-549 breast = system: BT-549 breast

CC1=C(/C=C/C(C)=C/C=C/C(C)=C/CO)C(C)(C)CCC1 was tested, and the TGI (SK-MEL-2 melanoma) was 44 µM, the TGI (UACC-257 melanoma) was 84.4 µM and the TGI (M14 melanoma) was 35.7 µM. For the same molecule, the TGI (PC-3 prostate) was > 100 µM, the TGI (SF-295 CNS) was 58.3 µM and the TGI (OVCAR-3 ovarian) was 28.4 µM. The TGI (OVCAR-4 ovarian) was > 100 µM, the TGI (SK-MEL-5 melanoma) was 32 µM and the TGI (NCI-H23 lung) was 54.8 µM. For the same molecule, the TGI (HCC-2998 colon) was 36.2 µM, the TGI (SN12C renal) was 60.8 µM and the TGI (MDA-MB-231 breast) was 78.5 µM. The TGI (EKVX NSCLC) was > 100 µM, the TGI (HCT-15 colon) was > 100 µM and the TGI (IGROV1 ovarian) was 57.7 µM. For the same molecule, the TGI (SF-268 CNS) was 52 µM, the TGI (ACHN renal) was > 100 µM and the TGI (HL-60(TB) leukemia) was 45.3 µM. The TGI (MOLT-4 leukemia) was 44.4 µM, the TGI (UACC-62 melanoma) was 45.9 µM and the TGI (A549 NSCLC) was 45.5 µM. For the same molecule, the TGI (HOP-62 NSCLC) was 47.5 µM, the TGI (NCI-H226 lung) was 50.9 µM and the TGI (U251 CNS) was 39 µM. For the same molecule, the TGI (MDA-MB-435) was 62.4 µM, the TGI (OVCAR-5 ovarian) was 61.2 µM and the TGI (SF-539 CNS) was 34.3 µM. For the same molecule, the TGI (COLO 205 colon) was 38.3 µM, the TGI (SK-MEL-28 melanoma) was 48.5 µM and the TGI (K-562 leukemia) was > 100 µM. For the same molecule, the TGI (CAKI-1 renal) was > 100 µM, the TGI (HT29 colon) was > 100 µM and the TGI (NCI-H460 lung) was > 100 µM. For the same molecule, the TGI (NCI-H522 lung) was 54.7 µM, the TGI (MALME-3M melanoma) was 29.1 µM and the TGI (NCI/ADR-RES ovarian) was 43.1 µM. It also gave a TGI (T-47D breast) of 96.2 µM, a TGI (LOX IMVI melanoma) of 43.5 µM and a TGI (CCRF-CEM leukemia) of 46.4 µM. The TGI (SNB-19 CNS) was 69.4 µM, the TGI (SK-OV-3 ovarian) was > 100 µM and the TGI (MDA-N) was > 100 µM. The TGI (DU-145 prostate) was > 100 µM, the TGI (KM12 colon) was > 100 µM and the TGI (RXF 393 renal) was 28.3 µM. The TGI (A498 renal) was 42.6 µM, the TGI (SR leukemia) was 38.3 µM and the TGI (UO-31 renal) was 31.8 µM. For the same molecule, the TGI (SW-620 colon) was 38.8 µM and the TGI (786-0 renal) was 34.2 µM.
With O=C(Nc1ccc(I)cc1F)c1cc(Cl)ccc1O the GI50 (SK-MEL-2 melanoma) was 0.358 µM, the TGI (SK-MEL-2 melanoma) was 1.99 µM and the GI50 (UACC-257 melanoma) was 0.467 µM. For the same molecule, the TGI (UACC-257 melanoma) was 3.99 µM, the GI50 (M14 melanoma) was 0.407 µM and the TGI (M14 melanoma) was 4.72 µM. The GI50 (PC-3 prostate) was 1.91 µM, the TGI (PC-3 prostate) was 6.5 µM and the GI50 (SF-295 CNS) was 1.75 µM. The TGI (SF-295 CNS) was 3.49 µM, the GI50 (OVCAR-3 ovarian) was 0.413 µM and the TGI (OVCAR-3 ovarian) was 10.7 µM. For the same molecule, the GI50 (HOP-92 NSCLC) was 0.167 µM, the TGI (HOP-92 NSCLC) was 0.505 µM and the GI50 (OVCAR-8 ovarian) was 0.623 µM. The TGI (OVCAR-8 ovarian) was 11 µM, the GI50 (OVCAR-4 ovarian) was 0.356 µM and the TGI (OVCAR-4 ovarian) was 6.4 µM. It also gave a GI50 (SK-MEL-5 melanoma) of 0.234 µM, a TGI (SK-MEL-5 melanoma) of 0.596 µM and a GI50 (TK-10 renal) of 1.13 µM. It also gave a TGI (TK-10 renal) of 16.3 µM, a GI50 (NCI-H23 lung) of 0.386 µM and a TGI (NCI-H23 lung) of 3.79 µM. For the same molecule, the GI50 (HCC-2998 colon) was 3.14 µM, the TGI (HCC-2998 colon) was 10.1 µM and the GI50 (SN12C renal) was 0.365 µM. For the same molecule, the TGI (SN12C renal) was 4.47 µM, the GI50 (MDA-MB-231 breast) was 0.388 µM and the TGI (MDA-MB-231 breast) was 4.56 µM. It also gave a GI50 (EKVX NSCLC) of 1.03 µM, a TGI (EKVX NSCLC) of 6.81 µM and a GI50 (HCT-15 colon) of 0.554 µM. The TGI (HCT-15 colon) was 10.7 µM, the GI50 (IGROV1 ovarian) was 0.36 µM and the TGI (IGROV1 ovarian) was > 100 µM. For the same molecule, the GI50 (SF-268 CNS) was 0.507 µM, the TGI (SF-268 CNS) was 7.06 µM and the GI50 (ACHN renal) was 0.487 µM. The TGI (ACHN renal) was 10.6 µM, the GI50 (HL-60(TB) leukemia) was 0.441 µM and the TGI (HL-60(TB) leukemia) was 3.27 µM. The GI50 (MOLT-4 leukemia) was 1.44 µM, the TGI (MOLT-4 leukemia) was 5.22 µM and the GI50 (UACC-62 melanoma) was 0.273 µM. For the same molecule, the TGI (UACC-62 melanoma) was 1.05 µM, the GI50 (A549 NSCLC) was 2.73 µM and the TGI (A549 NSCLC) was > 100 µM. It also gave a GI50 (HOP-62 NSCLC) of 2.21 µM, a TGI (HOP-62 NSCLC) of 8 µM and a GI50 (NCI-H226 lung) of 1.17 µM. The TGI (NCI-H226 lung) was 4.89 µM, the GI50 (U251 CNS) was 0.59 µM and the TGI (U251 CNS) was > 100 µM. It also gave a GI50 (MDA-MB-435) of 0.583 µM, a TGI (MDA-MB-435) of 4.9 µM and a GI50 (OVCAR-5 ovarian) of 3.55 µM. For the same molecule, the TGI (OVCAR-5 ovarian) was > 100 µM, the GI50 (SF-539 CNS) was 0.409 µM and the TGI (SF-539 CNS) was 3.89 µM. For the same molecule, the GI50 (COLO 205 colon) was 3.45 µM, the TGI (COLO 205 colon) was 11.2 µM and the GI50 (SK-MEL-28 melanoma) was 0.353 µM. The TGI (SK-MEL-28 melanoma) was 1.71 µM, the GI50 (K-562 leukemia) was 0.429 µM and the TGI (K-562 leukemia) was > 100 µM. For the same molecule, the GI50 (CAKI-1 renal) was 0.305 µM, the TGI (CAKI-1 renal) was 2.34 µM and the GI50 (HS 578T breast) was 0.325 µM. The TGI (HS 578T breast) was 3.19 µM, the GI50 (HT29 colon) was 3.29 µM and the TGI (HT29 colon) was 27.3 µM. The GI50 (NCI-H460 lung) was 0.434 µM, the TGI (NCI-H460 lung) was > 26.9 µM and the GI50 (MCF7 breast) was 0.552 µM. For the same molecule, the TGI (MCF7 breast) was > 19.8 µM, the GI50 (NCI-H522 lung) was 0.324 µM and the TGI (NCI-H522 lung) was 4.68 µM. For the same molecule, the GI50 (HCT-116 colon) was 0.403 µM, the TGI (HCT-116 colon) was 1.95 µM and the GI50 (MALME-3M melanoma) was 0.346 µM. The TGI (MALME-3M melanoma) was 1.83 µM, the GI50 (RPMI-8226 leukemia) was 0.28 µM and the TGI (RPMI-8226 leukemia) was 1.28 µM. For the same molecule, the GI50 (NCI/ADR-RES ovarian) was 0.4 µM, the TGI (NCI/ADR-RES ovarian) was 3.54 µM and the GI50 (T-47D breast) was 0.294 µM. It also gave a TGI (T-47D breast) of 2.57 µM, a GI50 (LOX IMVI melanoma) of 0.424 µM and a TGI (LOX IMVI melanoma) of 2.18 µM. It also gave a GI50 (SNB-75 CNS) of 0.308 µM, a TGI (SNB-75 CNS) of 2.36 µM and a GI50 (CCRF-CEM leukemia) of 1.73 µM. The TGI (CCRF-CEM leukemia) was 10 µM, the GI50 (SNB-19 CNS) was 0.372 µM and the TGI (SNB-19 CNS) was > 100 µM. It also gave a GI50 (SK-OV-3 ovarian) of 0.615 µM, a TGI (SK-OV-3 ovarian) of 2.64 µM and a GI50 (DU-145 prostate) of 0.681 µM. For the same molecule, the TGI (DU-145 prostate) was > 100 µM, the GI50 (KM12 colon) was 2.31 µM and the TGI (KM12 colon) was 6.01 µM. It also gave a GI50 (RXF 393 renal) of 0.507 µM, a TGI (RXF 393 renal) of 3.07 µM and a GI50 (A498 renal) of 0.176 µM. The TGI (A498 renal) was 0.585 µM, the GI50 (SR leukemia) was 0.531 µM and the TGI (SR leukemia) was > 100 µM. It also gave a GI50 (UO-31 renal) of 0.235 µM, a TGI (UO-31 renal) of 1.65 µM and a GI50 (BT-549 breast) of 0.372 µM. For the same molecule, the TGI (BT-549 breast) was 1.73 µM, the GI50 (SW-620 colon) was 0.737 µM and the TGI (SW-620 colon) was 12.7 µM. For the same molecule, the GI50 (786-0 renal) was 2.19 µM and the TGI (786-0 renal) was 7.18 µM.
